# Experimental data published in PMC11167047 (Cell Death Discovery, 2024).
# How the values were obtained:
# Test in all cases: kinome screen (33PanQinase)
# Type in all cases: biochemical
# [1] = molecular target: T1, PKCν (Homo sapiens, UniProt O94806)
# T1 construct: purchased Reaction Biology Europe GmbH (formerly ProQinase)
# T1 sequence (O94806 1-890): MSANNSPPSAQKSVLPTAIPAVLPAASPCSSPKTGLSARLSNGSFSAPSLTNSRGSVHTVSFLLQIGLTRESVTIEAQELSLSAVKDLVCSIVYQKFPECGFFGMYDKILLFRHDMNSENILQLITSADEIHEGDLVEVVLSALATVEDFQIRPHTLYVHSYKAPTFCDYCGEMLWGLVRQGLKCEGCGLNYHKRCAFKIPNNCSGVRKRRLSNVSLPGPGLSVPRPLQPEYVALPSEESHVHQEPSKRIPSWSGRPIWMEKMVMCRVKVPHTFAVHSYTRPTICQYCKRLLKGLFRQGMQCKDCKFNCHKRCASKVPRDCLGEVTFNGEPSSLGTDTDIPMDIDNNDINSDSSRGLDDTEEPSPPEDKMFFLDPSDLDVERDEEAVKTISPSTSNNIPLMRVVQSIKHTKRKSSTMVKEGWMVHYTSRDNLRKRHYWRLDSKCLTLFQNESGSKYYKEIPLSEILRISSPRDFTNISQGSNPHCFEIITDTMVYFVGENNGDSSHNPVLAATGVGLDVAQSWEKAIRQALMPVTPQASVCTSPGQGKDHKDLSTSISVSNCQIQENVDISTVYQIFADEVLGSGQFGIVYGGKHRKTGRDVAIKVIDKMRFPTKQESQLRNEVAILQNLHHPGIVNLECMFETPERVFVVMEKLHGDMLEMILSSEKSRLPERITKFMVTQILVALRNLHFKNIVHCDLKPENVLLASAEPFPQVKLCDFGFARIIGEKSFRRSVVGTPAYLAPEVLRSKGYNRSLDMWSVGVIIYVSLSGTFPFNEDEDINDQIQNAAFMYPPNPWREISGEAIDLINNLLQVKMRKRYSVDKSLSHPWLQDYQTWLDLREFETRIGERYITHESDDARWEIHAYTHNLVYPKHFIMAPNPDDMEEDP
# Description: (§1) The Kinome Screening was performed by Reaction Biology Europe GmbH (http://reactionbiology.com; Freiburg i. Br., Germany).
# [2] = molecular target: T2, CLK3 (Homo sapiens, UniProt P49761)
# T2 construct: purchased Reaction Biology Europe GmbH (formerly ProQinase)
# T2 sequence (P49761 whole entry): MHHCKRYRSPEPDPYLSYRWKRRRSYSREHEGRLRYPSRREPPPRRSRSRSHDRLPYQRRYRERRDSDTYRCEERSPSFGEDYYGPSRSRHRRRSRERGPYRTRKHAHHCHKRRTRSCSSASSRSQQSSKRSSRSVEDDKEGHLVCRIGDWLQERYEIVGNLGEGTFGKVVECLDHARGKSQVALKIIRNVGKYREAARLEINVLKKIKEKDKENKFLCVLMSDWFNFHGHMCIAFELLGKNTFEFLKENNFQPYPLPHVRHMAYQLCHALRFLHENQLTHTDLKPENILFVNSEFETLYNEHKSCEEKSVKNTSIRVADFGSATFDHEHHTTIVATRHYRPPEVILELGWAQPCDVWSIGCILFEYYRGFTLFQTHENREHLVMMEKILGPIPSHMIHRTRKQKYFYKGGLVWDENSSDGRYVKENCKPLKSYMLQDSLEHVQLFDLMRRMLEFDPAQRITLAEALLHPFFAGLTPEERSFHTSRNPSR
# Description: as §1
# [3] = molecular target: T3, CAMK2A (Homo sapiens, UniProt Q9UQM7)
# T3 construct: purchased Reaction Biology Europe GmbH (formerly ProQinase)
# T3 sequence (Q9UQM7 whole entry): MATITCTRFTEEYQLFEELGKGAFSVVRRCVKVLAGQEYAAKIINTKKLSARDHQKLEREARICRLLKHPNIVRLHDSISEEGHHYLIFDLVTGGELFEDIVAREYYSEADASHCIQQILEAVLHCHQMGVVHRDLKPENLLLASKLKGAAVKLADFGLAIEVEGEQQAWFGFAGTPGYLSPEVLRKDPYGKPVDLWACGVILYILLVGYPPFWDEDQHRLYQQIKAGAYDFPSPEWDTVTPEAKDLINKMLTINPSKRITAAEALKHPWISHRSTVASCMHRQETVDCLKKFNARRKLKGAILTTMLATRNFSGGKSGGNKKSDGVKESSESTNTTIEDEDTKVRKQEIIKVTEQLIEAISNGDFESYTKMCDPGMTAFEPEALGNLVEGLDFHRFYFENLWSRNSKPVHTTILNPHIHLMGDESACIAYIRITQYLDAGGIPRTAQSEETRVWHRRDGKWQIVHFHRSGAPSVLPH
# Description: as §1
# [4] = molecular target: T4, MARK3 (Homo sapiens, UniProt P27448)
# T4 construct: purchased Reaction Biology Europe GmbH (formerly ProQinase)
# T4 sequence (P27448 whole entry): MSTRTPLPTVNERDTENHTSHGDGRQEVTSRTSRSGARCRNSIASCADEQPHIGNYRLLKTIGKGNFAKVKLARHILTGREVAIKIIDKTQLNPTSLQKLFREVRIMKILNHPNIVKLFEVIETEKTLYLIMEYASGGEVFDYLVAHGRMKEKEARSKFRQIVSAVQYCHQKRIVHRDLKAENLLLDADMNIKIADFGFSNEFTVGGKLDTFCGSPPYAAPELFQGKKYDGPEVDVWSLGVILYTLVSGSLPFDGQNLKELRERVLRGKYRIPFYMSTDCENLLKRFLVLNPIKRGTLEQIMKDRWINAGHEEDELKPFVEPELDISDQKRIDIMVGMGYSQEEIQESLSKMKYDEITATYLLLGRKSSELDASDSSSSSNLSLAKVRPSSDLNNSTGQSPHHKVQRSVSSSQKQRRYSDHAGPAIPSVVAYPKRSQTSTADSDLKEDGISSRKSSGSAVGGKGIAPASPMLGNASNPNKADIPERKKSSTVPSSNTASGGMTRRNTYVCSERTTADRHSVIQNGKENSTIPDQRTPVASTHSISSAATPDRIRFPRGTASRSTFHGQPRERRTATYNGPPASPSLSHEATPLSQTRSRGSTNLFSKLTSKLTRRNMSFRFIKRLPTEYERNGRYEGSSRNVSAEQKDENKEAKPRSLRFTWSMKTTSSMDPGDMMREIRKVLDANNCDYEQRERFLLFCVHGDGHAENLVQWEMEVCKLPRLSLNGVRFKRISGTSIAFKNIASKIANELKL
# Description: as §1
# [5] = molecular target: T5, PAK1 (Homo sapiens, UniProt Q13153)
# T5 construct: purchased Reaction Biology Europe GmbH (formerly ProQinase)
# T5 sequence (Q13153 whole entry): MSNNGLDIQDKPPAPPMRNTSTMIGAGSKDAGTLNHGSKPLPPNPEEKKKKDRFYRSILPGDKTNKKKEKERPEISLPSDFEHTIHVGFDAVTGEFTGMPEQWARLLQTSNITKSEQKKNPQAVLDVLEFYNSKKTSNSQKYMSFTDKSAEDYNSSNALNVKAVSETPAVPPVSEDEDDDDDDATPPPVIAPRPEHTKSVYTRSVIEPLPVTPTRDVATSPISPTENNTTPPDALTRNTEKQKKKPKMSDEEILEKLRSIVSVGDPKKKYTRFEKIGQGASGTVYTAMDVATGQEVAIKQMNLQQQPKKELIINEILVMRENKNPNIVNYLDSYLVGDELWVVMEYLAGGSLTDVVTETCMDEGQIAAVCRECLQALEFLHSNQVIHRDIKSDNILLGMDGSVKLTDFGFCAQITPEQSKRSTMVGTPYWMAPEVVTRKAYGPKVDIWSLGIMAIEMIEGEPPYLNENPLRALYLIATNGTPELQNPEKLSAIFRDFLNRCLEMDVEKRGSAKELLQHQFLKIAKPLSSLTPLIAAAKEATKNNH
# Description: as §1
# [6] = molecular target: T6, FLT3 (Homo sapiens, UniProt P36888)
# T6 construct: purchased Reaction Biology Europe GmbH (formerly ProQinase)
# T6 sequence (P36888 27-993): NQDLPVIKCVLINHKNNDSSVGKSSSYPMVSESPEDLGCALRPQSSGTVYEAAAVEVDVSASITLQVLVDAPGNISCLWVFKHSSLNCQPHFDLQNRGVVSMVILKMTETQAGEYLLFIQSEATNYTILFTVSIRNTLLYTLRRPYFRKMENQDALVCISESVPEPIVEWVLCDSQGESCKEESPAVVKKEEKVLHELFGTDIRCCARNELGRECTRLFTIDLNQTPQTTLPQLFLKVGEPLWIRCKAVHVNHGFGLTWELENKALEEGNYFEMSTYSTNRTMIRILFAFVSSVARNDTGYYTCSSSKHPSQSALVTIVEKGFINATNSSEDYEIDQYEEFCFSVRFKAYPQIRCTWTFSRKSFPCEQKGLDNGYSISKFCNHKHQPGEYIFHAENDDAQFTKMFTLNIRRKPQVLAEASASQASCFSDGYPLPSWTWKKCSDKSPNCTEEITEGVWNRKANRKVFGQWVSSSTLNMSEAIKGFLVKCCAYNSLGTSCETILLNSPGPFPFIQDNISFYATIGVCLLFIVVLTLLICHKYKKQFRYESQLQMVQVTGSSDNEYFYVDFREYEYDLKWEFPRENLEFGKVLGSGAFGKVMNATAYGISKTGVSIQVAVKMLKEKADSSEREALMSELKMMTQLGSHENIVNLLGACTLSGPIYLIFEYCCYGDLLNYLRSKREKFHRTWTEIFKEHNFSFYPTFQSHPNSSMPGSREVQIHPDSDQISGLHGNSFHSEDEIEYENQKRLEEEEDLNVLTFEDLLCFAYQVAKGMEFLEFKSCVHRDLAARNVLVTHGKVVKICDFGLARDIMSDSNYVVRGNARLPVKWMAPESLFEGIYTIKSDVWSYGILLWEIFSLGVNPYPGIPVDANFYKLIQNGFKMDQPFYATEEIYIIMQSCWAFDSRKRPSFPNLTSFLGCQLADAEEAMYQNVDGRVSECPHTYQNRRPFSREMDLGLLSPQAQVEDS
# Description: as §1
# [7] = molecular target: T7, DNAPK (Homo sapiens, UniProt P78527)
# T7 construct: purchased Reaction Biology Europe GmbH (formerly ProQinase)
# Description: as §1
# [8] = molecular target: T8, RPS6KA1 (Homo sapiens, UniProt Q15418)
# T8 construct: purchased Reaction Biology Europe GmbH (formerly ProQinase)
# T8 sequence (Q15418 whole entry): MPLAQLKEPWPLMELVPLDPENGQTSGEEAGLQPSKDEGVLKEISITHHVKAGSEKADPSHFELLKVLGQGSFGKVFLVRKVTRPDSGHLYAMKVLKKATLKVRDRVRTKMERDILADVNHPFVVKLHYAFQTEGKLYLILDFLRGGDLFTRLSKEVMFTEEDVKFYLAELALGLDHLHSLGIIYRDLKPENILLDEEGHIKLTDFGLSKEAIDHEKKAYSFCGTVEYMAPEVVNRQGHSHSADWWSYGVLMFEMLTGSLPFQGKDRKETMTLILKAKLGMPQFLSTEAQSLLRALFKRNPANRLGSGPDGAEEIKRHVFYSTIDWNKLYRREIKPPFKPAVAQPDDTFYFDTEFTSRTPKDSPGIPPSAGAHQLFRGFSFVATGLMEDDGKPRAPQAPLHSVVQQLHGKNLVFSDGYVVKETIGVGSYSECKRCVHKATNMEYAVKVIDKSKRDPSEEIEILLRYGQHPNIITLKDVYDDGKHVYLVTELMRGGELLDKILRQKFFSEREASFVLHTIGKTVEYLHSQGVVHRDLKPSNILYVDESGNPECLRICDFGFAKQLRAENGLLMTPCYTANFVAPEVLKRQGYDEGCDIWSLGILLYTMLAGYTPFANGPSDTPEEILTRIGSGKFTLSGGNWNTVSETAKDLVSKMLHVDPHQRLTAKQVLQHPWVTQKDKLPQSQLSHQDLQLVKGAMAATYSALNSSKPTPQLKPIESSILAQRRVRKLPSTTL
# Description: as §1
SMILES,residual kinase activity ([1]; 0.3 µM),residual kinase activity ([2]; 0.3 µM),residual kinase activity ([3]; 0.3 µM),residual kinase activity ([4]; 0.3 µM),residual kinase activity ([5]; 0.3 µM),residual kinase activity ([6]; 0.3 µM),residual kinase activity ([7]; 0.3 µM),residual kinase activity ([8]; 0.3 µM),also measured
COc1ccnc2[nH]cc(-c3cc(N)nc(N)c3)c12 [meriolin 16],32 % of control,36 % of control,81 % of control,86 % of control,98 % of control,21 % of control,97 % of control,22 % of control,residual kinase activity ([1]; 0.03 µM): 89 % of control; residual kinase activity ([2]; 0.03 µM): 94 % of control; residual kinase activity ([3]; 0.03 µM): 103 % of control; residual kinase activity ([4]; 0.03 µM): 99 % of control; residual kinase activity ([5]; 0.03 µM): 106 % of control; residual kinase activity ([6]; 0.03 µM): 49 % of control; residual kinase activity ([7]; 0.03 µM): 100 % of control; residual kinase activity ([8]; 0.03 µM): 46 % of control
c1ccc(CNc2cc(-c3c[nH]c4ncccc34)ccn2)cc1 [meriolin 36],62 % of control,13 % of control,26 % of control,89 % of control,85 % of control,9 % of control,71 % of control,20 % of control,residual kinase activity ([1]; 3 µM): 17 % of control; residual kinase activity ([2]; 3 µM): 1 % of control; residual kinase activity ([3]; 3 µM): 2 % of control; residual kinase activity ([4]; 3 µM): 48 % of control; residual kinase activity ([5]; 3 µM): 76 % of control; residual kinase activity ([6]; 3 µM): 2 % of control; residual kinase activity ([7]; 3 µM): 25 % of control; residual kinase activity ([8]; 3 µM): 10 % of control
